Source: patent publication US20160113282A1 (HONBU SANKEI CO., LTD., priority 2013, published 2016)
Like-named read-outs stand apart in the source and are kept apart here.

Assays:
[1] = tested on: influenza virus Type A Aichi strain A/Aichi/68 (H3N2); format: cell-based; details: 10 ppm; for ratio of the amount of residual infectious viruses: 30 minutes at 25° C., PBS = 1.00
[2] = tested on: Herpes simplex virus type I VR-539; experiment: Inactivation of herpesviruses, plaque assay on Vero cells; format: cell-based
[3] = tested on: Vero cells; experiment: Impairment in colony formation capability; format: cell-based, African green monkey; details: phosphoric acid buffer (FIG. 7)
[4] = tested on: HEp-2 cells; experiment: Impairment in colony formation capability; format: cell-based, human; details: phosphoric acid buffer (FIG. 7)
[5] = tested on: MDCK cells; experiment: Impairment in colony formation capability; format: cell-based, canine; details: phosphoric acid buffer (FIG. 7)
[6] = tested on: feline calicivirus F4 strain; experiment: Inactivation of feline caliciviruses (Example 10), plaque assay on CRFK cells; format: cell-based; details: 30 minutes at 25° C. (FIG. 10)
[7] = tested on: feline calicivirus F4 strain; experiment: In vitro test in test tube, feline caliciviruses (Example 11); format: cell-based

Which “viruses inactivated to (detectable limit)” value ([1]; each pH from pH 5.5 to pH 8.8) does the source give for OCl [Sodium hypochlorite aqueous solution, sodium hypochlorite] here?
Its value is < 10^−5.

And the “ratio of the amount of residual infectious viruses” value ([1]; pH 5.5)?
The value was under 0.0002.

And the “ratio of the amount of residual infectious viruses” value ([1]; pH 6.5)?
The value was under 0.0002.

What about the “ratio of the amount of residual infectious viruses” value ([1]; pH 7.5) of the same compound?
Its value is under 0.0002.

What about the “ratio of the amount of residual infectious viruses” value ([1]; pH 8.5) of the same compound?
The value was under 0.0002.

And the “sterilizing effect on herpesvirus type I” value ([2]; acidic conditions of pH 5.5 or lower)?
The value was “diminished”.

And the “Number of Residual Viruses in Test Solution/Number of Residual Viruses only with Buffer × 100 (%)” value ([2]; pH 4.5, 10 ppm)?
The value was 80%.

And the “Number of Residual Viruses in Test Solution/Number of Residual Viruses only with Buffer × 100 (%)” value ([2]; pH 4.5, 50 ppm)?
Its value is 67.4%.

What about the “Number of Residual Viruses in Test Solution/Number of Residual Viruses only with Buffer × 100 (%)” value ([2]; pH 4.5, 100 ppm) of the same compound?
The value was 63.1%.

What about the “Number of Residual Viruses in Test Solution/Number of Residual Viruses only with Buffer × 100 (%)” value ([2]; pH 4.5, 150 ppm) of the same compound?
Its value is 23.3%.

What about the “Number of Residual Viruses in Test Solution/Number of Residual Viruses only with Buffer × 100 (%)” value ([2]; pH 4.5, 200 ppm) of the same compound?
The value was 35.2%.

What about the “Number of Residual Viruses in Test Solution/Number of Residual Viruses only with Buffer × 100 (%)” value ([2]; pH 5.5, 10 ppm) of the same compound?
Its value is 14.3%.

What about the “Number of Residual Viruses in Test Solution/Number of Residual Viruses only with Buffer × 100 (%)” value ([2]; pH 5.5, 50 ppm) of the same compound?
Its value is 90.9%.

And the “Number of Residual Viruses in Test Solution/Number of Residual Viruses only with Buffer × 100 (%)” value ([2]; pH 5.5, 100 ppm)?
Its value is 96.4%.

And the “Number of Residual Viruses in Test Solution/Number of Residual Viruses only with Buffer × 100 (%)” value ([2]; pH 5.5, 150 ppm)?
The value was under 0.2%.

What about the “Number of Residual Viruses in Test Solution/Number of Residual Viruses only with Buffer × 100 (%)” value ([2]; pH 5.5, 150 ppm, listed as sodium hypochlorite aqueous solution) of the same compound?
Its value is “below the detectable limit”.

What about the “Number of Residual Viruses in Test Solution/Number of Residual Viruses only with Buffer × 100 (%)” value ([2]; pH 5.5, 200 ppm) of the same compound?
The value was under 0.5%.

What about the “Number of Residual Viruses in Test Solution/Number of Residual Viruses only with Buffer × 100 (%)” value ([2]; pH 5.5, 200 ppm, listed as sodium hypochlorite aqueous solution) of the same compound?
Its value is “below the detectable limit”.

And the “Number of Residual Viruses in Test Solution/Number of Residual Viruses only with Buffer × 100 (%)” value ([2]; pH 6.5, 10 ppm)?
The value was under 6%.

And the “Number of Residual Viruses in Test Solution/Number of Residual Viruses only with Buffer × 100 (%)” value ([2]; pH 6.5, 50 ppm)?
The value was under 0.3%.

And the “Number of Residual Viruses in Test Solution/Number of Residual Viruses only with Buffer × 100 (%)” value ([2]; pH 6.5, 100 ppm)?
Its value is under 0.3%.

What about the “Number of Residual Viruses in Test Solution/Number of Residual Viruses only with Buffer × 100 (%)” value ([2]; pH 6.5, 150 ppm) of the same compound?
The value was under 0.2%.

What about the “Number of Residual Viruses in Test Solution/Number of Residual Viruses only with Buffer × 100 (%)” value ([2]; pH 6.5, 200 ppm) of the same compound?
The value was under 0.6%.

And the “Number of Residual Viruses in Test Solution/Number of Residual Viruses only with Buffer × 100 (%)” value ([2]; pH 7.5, 10 ppm)?
Its value is 20%.

What about the “Number of Residual Viruses in Test Solution/Number of Residual Viruses only with Buffer × 100 (%)” value ([2]; pH 7.5, 50 ppm) of the same compound?
The value was under 0.3%.

And the “Number of Residual Viruses in Test Solution/Number of Residual Viruses only with Buffer × 100 (%)” value ([2]; pH 7.5, 100 ppm)?
Its value is under 0.3%.

And the “Number of Residual Viruses in Test Solution/Number of Residual Viruses only with Buffer × 100 (%)” value ([2]; pH 7.5, 150 ppm)?
Its value is under 0.2%.

What about the “Number of Residual Viruses in Test Solution/Number of Residual Viruses only with Buffer × 100 (%)” value ([2]; pH 7.5, 200 ppm) of the same compound?
Its value is under 0.4%.

And the “Number of Residual Viruses in Test Solution/Number of Residual Viruses only with Buffer × 100 (%)” value ([2]; pH 8.5, 10 ppm)?
Its value is 36%.

What about the “Number of Residual Viruses in Test Solution/Number of Residual Viruses only with Buffer × 100 (%)” value ([2]; pH 8.5, 50 ppm) of the same compound?
Its value is under 0.3%.

And the “Number of Residual Viruses in Test Solution/Number of Residual Viruses only with Buffer × 100 (%)” value ([2]; pH 8.5, 100 ppm)?
Its value is under 0.3%.

What about the “Number of Residual Viruses in Test Solution/Number of Residual Viruses only with Buffer × 100 (%)” value ([2]; pH 8.5, 150 ppm) of the same compound?
Its value is under 0.2%.

What about the “Number of Residual Viruses in Test Solution/Number of Residual Viruses only with Buffer × 100 (%)” value ([2]; pH 8.5, 200 ppm) of the same compound?
Its value is under 0.4%.

And the “concentration reducing HSV-I to below the detectable limit” value ([2]; pH conditions of 6.5-8.5)?
Its value is at least 50 ppm.

What about the “concentration at which impairment in colony formation was observed” value (shortened to “concentration at which impairment”) [3] of the same compound?
Its value is at most 5 ppm.

What about the “concentration at which impairment” value [4] of the same compound?
The value was at most 5 ppm.

And the “concentration at which impairment” value [5]?
Its value is at most 5 ppm.

And the “effect of pH on inactivation of feline caliciviruses” value ([6]; pH 4.5 and pH 7.5)?
The value was “greatly affected by pH”.

What about the “feline caliciviruses inactivation capability” value ([6]; pH of 4.5) of the same compound?
Its value is “lost”.

And the “number of infectious viruses” value ([7]; pH 5.5, 25 ppm, contact 0 min)?
Its value is 5.4 ± 1.7 log CPU/mL.

And the “number of infectious viruses” value ([7]; pH 5.5, 50 ppm, contact 0 min)?
The value was 5.4 ± 1.7 log CPU/mL.

What about the “number of infectious viruses” value ([7]; pH 5.5, 100 ppm, contact 0 min) of the same compound?
The value was 5.4 ± 1.7 log CPU/mL.

What about the “number of infectious viruses” value ([7]; pH 5.5, 200 ppm, contact 0 min) of the same compound?
The value was 5.4 ± 1.7 log CPU/mL.

What about the “number of infectious viruses” value ([7]; pH 5.5, 200 ppm, contact 5 min) of the same compound?
Its value is 3.7 ± 1.8 log CPU/mL.

And the “number of infectious viruses” value ([7]; pH 5.5, 200 ppm, contact 10 min)?
The value was 2.6 ± 1.8 log CPU/mL.

What about the “number of infectious viruses” value ([7]; pH 5.5, 400 ppm, contact 0 min) of the same compound?
Its value is 5.4 ± 1.7 log CPU/mL.

What about the “number of infectious viruses” value ([7]; pH 5.5, 400 ppm, contact 1 min) of the same compound?
The value was under 2.0 log CPU/mL.

What about the “number of infectious viruses” value ([7]; pH 5.5, 400 ppm, contact 5 min) of the same compound?
The value was under 2.0 log CPU/mL.

What about the “number of infectious viruses” value ([7]; pH 5.5, 400 ppm, contact 10 min) of the same compound?
The value was under 2.0 log CPU/mL.

And the “number of infectious viruses” value ([7]; pH 6.5, 25 ppm, contact 0 min)?
Its value is 6.1 ± 2.1 log CPU/mL.

What about the “number of infectious viruses” value ([7]; pH 6.5, 50 ppm, contact 0 min) of the same compound?
The value was 6.1 ± 2.1 log CPU/mL.

And the “number of infectious viruses” value ([7]; pH 6.5, 100 ppm, contact 0 min)?
Its value is 6.1 ± 2.1 log CPU/mL.

And the “number of infectious viruses” value ([7]; pH 6.5, 200 ppm, contact 0 min)?
Its value is 6.1 ± 2.1 log CPU/mL.

What about the “number of infectious viruses” value ([7]; pH 6.5, 200 ppm, contact 5 min) of the same compound?
The value was 3.3 ± 2.9 log CPU/mL.

What about the “number of infectious viruses” value ([7]; pH 6.5, 200 ppm, contact 10 min) of the same compound?
The value was under 2.0 log CPU/mL.

What about the “number of infectious viruses” value ([7]; pH 6.5, 400 ppm, contact 0 min) of the same compound?
The value was 6.1 ± 2.1 log CPU/mL.

And the “number of infectious viruses” value ([7]; pH 6.5, 400 ppm, contact 1 min)?
The value was under 2.0 log CPU/mL.

What about the “number of infectious viruses” value ([7]; pH 6.5, 400 ppm, contact 5 min) of the same compound?
Its value is under 2.0 log CPU/mL.

And the “number of infectious viruses” value ([7]; pH 6.5, 400 ppm, contact 10 min)?
Its value is under 2.0 log CPU/mL.

And the “number of infectious viruses” value ([7]; pH 7.5, 25 ppm, contact 0 min)?
Its value is 5.2 ± 2.6 log CPU/mL.

What about the “number of infectious viruses” value ([7]; pH 7.5, 50 ppm, contact 0 min) of the same compound?
Its value is 5.2 ± 2.6 log CPU/mL.

And the “number of infectious viruses” value ([7]; pH 7.5, 50 ppm, contact 5 min)?
The value was 4.4 ± 1.8 log CPU/mL.

And the “number of infectious viruses” value ([7]; pH 7.5, 50 ppm, contact 10 min)?
The value was under 2.0 log CPU/mL.

What about the “number of infectious viruses” value ([7]; pH 7.5, 100 ppm, contact 0 min) of the same compound?
The value was 5.2 ± 2.6 log CPU/mL.

And the “number of infectious viruses” value ([7]; pH 7.5, 100 ppm, contact 5 min)?
The value was 3.4 ± 1.8 log CPU/mL.

What about the “number of infectious viruses” value ([7]; pH 7.5, 100 ppm, contact 10 min) of the same compound?
The value was under 2.0 log CPU/mL.

What about the “number of infectious viruses” value ([7]; pH 7.5, 200 ppm, contact 0 min) of the same compound?
Its value is 5.2 ± 2.6 log CPU/mL.
